In brackets after ≈: the same amount, converted by molar mass.

The experiment relates to Escherichia coli (TolC-deficient). Description: MIC microdilution, E. coli (TolC-deficient). It counts as cell-based. The conditions noted are these: Escherichia coli, read-out: MIC Escherichia coli (TolC-deficient). The procedure:
Indicator strains used in susceptibility assays were either part of our strain collection or purchased from the German Collection of Microorgansims and Cell Cultures (DSMZ) or from the American Type Culture Collection (ATCC). E. coli strain WT and corresponding E. coli mutants were kindly provided by Prof. Dr. P. Heisig, Pharmaceutical Biology and Microbiology, University of Hamburg. E. coli strains JW0401-1 (WT) and Δtsx were obtained from the CGSC collection.
MIC values were determined in standardized microdilution assays. Overnight cultures were diluted in the appropriate growth medium to achieve an inoculum of 10^4-10^6 cfu/mL. Yeasts were grown in Myc medium (1% phytone peptone, 1% glucose, 50 mM HEPES, pH 7.0), S. pneumonia and Enterococcus spp. in tryptic soy broth (TSB: 1.7% peptone casein, 0.3% peptone soymeal, 0.25% glucose, 0.5% NaCl, 0.25% K2HPO4; pH 7.3); M. smegmatis in Middlebrook 7H9 medium supplemented with 10% Middlebrook ADC enrichment and 2 ml/I glycerol). All other listed bacteria were grown in Müller-Hinton broth (0.2% beef infusion solids, 1.75% casein hydrolysate, 0.15% starch, pH 7.4). […] Growth inhibition was assessed by visual inspection and the MIC was defined as the lowest concentration of compound that inhibited visible growth.

Turning to `O=C(O)c1cn(C2CC2)c2cc(N3CCNCC3)c(F)cc2c1=O` [CP, Ciprofloxacin, reference compound], the MIC amounted to 0.01 µg/mL (≈ 0.0302 µM).

A word on the MIC: it is the lowest concentration found to suppress growth.

The record behind these values is US10519099B2, “Cystobactamides” (priority 2014, dated 2019).
